The supplement of paper PMC7840683

Test system: HepaRG
Assay: LDH release cytotoxicity, % of total lysis control; higher = more cytotoxic
Conditions: 48 h
Method in brief: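 Single-lot HepaRG cells in collagen I-coated 96-well plates were treated for 48 h in serum-free induction medium containing 0.5% DMSO with test chemicals in eight-point half-log series up to 100 µM. For total lysis, wells received 0.1% Triton X. LDH in 50 µL spent medium was assayed by resorufin fluorescence with CytoTox-ONE. Percent cytotoxicity was normalized to the on-plate vehicle and total lysis controls, with duplicates averaged.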

CCCCOC(=O)C(C)Oc1ccc(Oc2ccc(C(F)(F)F)cn2)cc1 (configuration not stated) [Fluazifop-P-butyl]
Conditions | LDH release cytotoxicity [%]
0.0317809 µM | -1.34
0.1005 µM | -0.704
0.317809 µM | -1.02
1.005 µM | -0.805
3.17809 µM | -1.3
10.05 µM | -0.416
31.7809 µM | 0.0852
100.5 µM | -0.23

CC12CCC3c4ccc(O)cc4CCC3C1CCC2O (stereo not drawn) [17beta-Estradiol]
Conditions | LDH release cytotoxicity [%]
0.01581 µM | -0.962
0.05 µM | -1.17
0.1581139 µM | -1.03
0.5 µM | -1.37
1.5811388 µM | -1.1
5 µM | -0.844
15.8114 µM | -0.113
50 µM | 6.2

CCc1nn(C)c(C(=O)NCc2ccc(C(C)(C)C)cc2)c1Cl [Tebufenpyrad]
Conditions | LDH release cytotoxicity [%]
0.03162 µM | -1.57
0.1 µM | -1.25
0.3162278 µM | -2.38
1 µM | 5.74
3.16228 µM | 10.5
10 µM | 15.5
31.6228 µM | 23.2
100 µM | 49.6

N#Cc1cc(Br)c(O)c(Br)c1 [Bromoxynil]
Conditions | LDH release cytotoxicity [%]
0.0253 µM | -2.04
0.08 µM | -2.14
0.252982 µM | -2.16
0.8 µM | -1.57
2.52982 µM | -1.26
8 µM | 0.434
25.2982 µM | 0.49
80 µM | 55.4

O=P(OC(CCl)CCl)(OC(CCl)CCl)OC(CCl)CCl [Tris(1,3-dichloro-2-propyl) phosphate]
Conditions | LDH release cytotoxicity [%]
0.03162 µM | 0.268
0.1 µM | -1.46
0.3162278 µM | -0.407
1 µM | -1.12
3.16228 µM | -0.951
10 µM | -0.799
31.6228 µM | 0.114
100 µM | 9.87

CNC(=O)C1OC(n2cnc3c(NCc4cc(Cl)ccc4OCc4cc(C)no4)ncnc32)C(O)C1N (configuration not stated)
Conditions | LDH release cytotoxicity [%]
0.03162 µM | -1.47
0.1 µM | -1.47
0.3162278 µM | -1.92
1 µM | -1.97
3.16228 µM | -1.57
10 µM | -1.54
31.6228 µM | -0.977
100 µM | 0.0796

O=[N+]([O-])c1c(Cl)c(Cl)c(Cl)c(Cl)c1Cl [Pentachloronitrobenzene]
Conditions | LDH release cytotoxicity [%]
0.03162 µM | -1.26
0.1 µM | -1.49
0.3162278 µM | -1.32
1 µM | -1.55
3.16228 µM | -0.822
10 µM | 0.118
31.6228 µM | 0.34
100 µM | 2.25

Oc1c(Cl)c(Cl)c(Cl)c(Cl)c1Cl [Pentachlorophenol]
Conditions | LDH release cytotoxicity [%]
0.0161276 µM | -0.227
0.051 µM | -1.03
0.161276 µM | -1.01
0.51 µM | -0.425
1.6127616 µM | 1.21
5.1 µM | 9
16.127616 µM | 41.1
51 µM | 40.65

CCCN(C1CCN(C(=O)C2CCNCC2)CC1)C1CCc2ccc(OC)cc2C1 (configuration not stated)
Conditions | LDH release cytotoxicity [%]
0.03162 µM | -0.976
0.1 µM | -1.04
0.3162278 µM | -2.19
1 µM | -1.39
3.16228 µM | -1.79
10 µM | -1.52
31.6228 µM | 0.507
100 µM | 45.7

O=C1c2c(O)cccc2Cc2cccc(O)c21 [Anthralin]
Conditions | LDH release cytotoxicity [%]
0.03162 µM | -2.38
0.1 µM | -0.784
0.3162278 µM | -1.25
1 µM | -0.891
3.16228 µM | -0.148
10 µM | -1.12
31.6228 µM | -0.933
100 µM | -0.256

CCN(CC)CCNc1ccc(CNC=O)c2sc3ccc(OC)cc3c(=O)c12
Conditions | LDH release cytotoxicity [%]
0.03162 µM | -0.844
0.1 µM | -1.66
0.3162278 µM | -0.986
1 µM | -1.41
3.16228 µM | 1.37
10 µM | 2.31
31.6228 µM | 5.144
100 µM | 81.1

O=[N+]([O-])c1ccccc1 [Nitrobenzene]
Conditions | LDH release cytotoxicity [%]
0.03162 µM | -0.035
0.1 µM | -0.746
0.3162278 µM | -0.739
1 µM | -0.928
3.16228 µM | -1.24
10 µM | -0.372
31.6228 µM | -0.298
100 µM | 1.13

Nc1cc(Cl)cc(C(=O)O)c1Cl [Chloramben]
Conditions | LDH release cytotoxicity [%]
0.03162 µM | 0.283
0.1 µM | -1.57
0.3162278 µM | -0.351
1 µM | -0.882
3.16228 µM | -1.46
10 µM | -0.217
31.6228 µM | -0.618
100 µM | 0.291

CCCCCCCCCCCCCCC [Pentadecane]
Conditions | LDH release cytotoxicity [%]
0.03162 µM | -1.39
0.1 µM | -0.5079
0.3162278 µM | -0.0639
1 µM | -1.27
3.16228 µM | -0.987
10 µM | -0.163
31.6228 µM | 0.517
100 µM | 1.96

CCCCCCCCCCCCCCCCO [1-Hexadecanol]
Conditions | LDH release cytotoxicity [%]
0.0320971 µM | -2.16
0.1015 µM | -2.95
0.320971 µM | -2.48
1.015 µM | -3.51
3.2097118 µM | -3.1
10.15 µM | -2.1
32.0971 µM | -1.56
101.5 µM | 3.36

S=C1NCCN1 [Ethylene thiourea]
Conditions | LDH release cytotoxicity [%]
0.03162 µM | -0.742
0.1 µM | -0.402
0.3162278 µM | -0.462
1 µM | -0.602
3.16228 µM | -0.544
10 µM | 0.0401
31.6228 µM | 0.537
100 µM | 0.155

CC(C)C(=O)Nc1ccc([N+](=O)[O-])c(C(F)(F)F)c1 [Flutamide]
Conditions | LDH release cytotoxicity [%]
0.03162 µM | -0.977
0.1 µM | -1.06
0.3162278 µM | -1.63
1 µM | -1.92
3.16228 µM | -1.23
10 µM | 0.0752
31.6228 µM | 2.14
100 µM | 13.6

CCC(=C(c1ccccc1)c1ccc(OCCN(C)C)cc1)c1ccccc1 [Tamoxifen]
Conditions | LDH release cytotoxicity [%]
0.03162 µM | -1.09
0.1 µM | -0.968
0.3162278 µM | -1.82
1 µM | -2.26
3.16228 µM | -0.69
10 µM | -0.919
31.6228 µM | 4.6
100 µM | 79.7

CCOP(=O)(NC(C)C)Oc1ccc(SC)c(C)c1 (configuration not stated) [Fenamiphos]
Conditions | LDH release cytotoxicity [%]
0.03162 µM | -1.16
0.1 µM | -1.81
0.3162278 µM | -1.38
1 µM | -1.28
3.16228 µM | -1.13
10 µM | -1.56
31.6228 µM | -1.03
100 µM | 0.0773
